Experimental data from PubChem BioAssay (NCI).
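Each compound was tested at five concentrations against cells in 96-well plates for 48 hours. At the GI50, growth is halved. TGI: total growth inhibition.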

Tests used:
Assay in all cases: NCI tumour cell line growth inhibition, 48 h
OVCAR-5 ovarian = test system: OVCAR-5 ovarian
A549 NSCLC = test system: A549 NSCLC
UO-31 renal = test system: UO-31 renal
SK-MEL-28 melanoma = test system: SK-MEL-28 melanoma
HCC-2998 colon = test system: HCC-2998 colon
MDA-MB-435 = test system: MDA-MB-435
OVCAR-4 ovarian = test system: OVCAR-4 ovarian
LOX IMVI melanoma = test system: LOX IMVI melanoma
HOP-92 NSCLC = test system: HOP-92 NSCLC
SF-295 CNS = test system: SF-295 CNS
MOLT-4 leukemia = test system: MOLT-4 leukemia
M14 melanoma = test system: M14 melanoma
A498 renal = test system: A498 renal
TK-10 renal = test system: TK-10 renal
T-47D breast = test system: T-47D breast
U251 CNS = test system: U251 CNS
HOP-62 NSCLC = test system: HOP-62 NSCLC
MDA-MB-231 breast = test system: MDA-MB-231 breast
RXF 393 renal = test system: RXF 393 renal
SF-268 CNS = test system: SF-268 CNS
SK-MEL-2 melanoma = test system: SK-MEL-2 melanoma
CAKI-1 renal = test system: CAKI-1 renal
NCI-H522 lung = test system: NCI-H522 lung
SNB-75 CNS = test system: SNB-75 CNS
ACHN renal = test system: ACHN renal
RPMI-8226 leukemia = test system: RPMI-8226 leukemia
SF-539 CNS = test system: SF-539 CNS
COLO 205 colon = test system: COLO 205 colon
SN12C renal = test system: SN12C renal
NCI-H460 lung = test system: NCI-H460 lung
KM12 colon = test system: KM12 colon
SR leukemia = test system: SR leukemia
NCI-H23 lung = test system: NCI-H23 lung
SW-620 colon = test system: SW-620 colon
HCT-15 colon = test system: HCT-15 colon
UACC-257 melanoma = test system: UACC-257 melanoma
MALME-3M melanoma = test system: MALME-3M melanoma
SK-MEL-5 melanoma = test system: SK-MEL-5 melanoma
EKVX NSCLC = test system: EKVX NSCLC
NCI-H226 lung = test system: NCI-H226 lung
MCF7 breast = test system: MCF7 breast
OVCAR-8 ovarian = test system: OVCAR-8 ovarian
PC-3 prostate = test system: PC-3 prostate
UACC-62 melanoma = test system: UACC-62 melanoma
K-562 leukemia = test system: K-562 leukemia
IGROV1 ovarian = test system: IGROV1 ovarian
CCRF-CEM leukemia = test system: CCRF-CEM leukemia
SNB-19 CNS = test system: SNB-19 CNS
NCI/ADR-RES ovarian = test system: NCI/ADR-RES ovarian
HCT-116 colon = test system: HCT-116 colon
OVCAR-3 ovarian = test system: OVCAR-3 ovarian
DU-145 prostate = test system: DU-145 prostate
HL-60(TB) leukemia = test system: HL-60(TB) leukemia
HS 578T breast = test system: HS 578T breast
HT29 colon = test system: HT29 colon
786-0 renal = test system: 786-0 renal
SK-OV-3 ovarian = test system: SK-OV-3 ovarian

For O=C(Nc1ccc(-n2cc(-c3ccncc3)c(-c3ccc(O)c(Cl)c3)n2)cc1)c1cc(C(F)(F)F)cc(C(F)(F)F)c1, the GI50 (OVCAR-5 ovarian) was 9.18 µM, the TGI (OVCAR-5 ovarian) was > 25 µM and the GI50 (A549 NSCLC) was 9.11 µM. The TGI (A549 NSCLC) was > 25 µM, the GI50 (UO-31 renal) was 5.3 µM and the TGI (UO-31 renal) was > 25 µM. For the same compound, the GI50 (SK-MEL-28 melanoma) was 6.07 µM, the TGI (SK-MEL-28 melanoma) was 23.3 µM and the GI50 (HCC-2998 colon) was 9.89 µM. The TGI (HCC-2998 colon) was > 25 µM, the GI50 (MDA-MB-435) was 5.79 µM and the TGI (MDA-MB-435) was > 25 µM. For the same compound, the GI50 (OVCAR-4 ovarian) was 8.12 µM, the TGI (OVCAR-4 ovarian) was > 25 µM and the GI50 (LOX IMVI melanoma) was 5.59 µM. The TGI (LOX IMVI melanoma) was > 25 µM, the GI50 (HOP-92 NSCLC) was 1.04 µM and the TGI (HOP-92 NSCLC) was 13.7 µM. For the same compound, the GI50 (SF-295 CNS) was 4.71 µM, the TGI (SF-295 CNS) was 15 µM and the GI50 (MOLT-4 leukemia) was 3.89 µM. The TGI (MOLT-4 leukemia) was 15.5 µM, the GI50 (M14 melanoma) was 3.58 µM and the TGI (M14 melanoma) was 9.58 µM. For the same compound, the GI50 (A498 renal) was 14.1 µM, the TGI (A498 renal) was > 25 µM and the GI50 (TK-10 renal) was 5.87 µM. For the same compound, the TGI (TK-10 renal) was > 25 µM, the GI50 (T-47D breast) was 12.2 µM and the TGI (T-47D breast) was > 25 µM. For the same compound, the GI50 (U251 CNS) was 4.55 µM, the TGI (U251 CNS) was > 25 µM and the GI50 (HOP-62 NSCLC) was 12.5 µM. For the same compound, the TGI (HOP-62 NSCLC) was > 25 µM, the GI50 (MDA-MB-231 breast) was 2.92 µM and the TGI (MDA-MB-231 breast) was 6.8 µM. For the same compound, the GI50 (RXF 393 renal) was 3.1 µM, the TGI (RXF 393 renal) was 6.58 µM and the GI50 (SF-268 CNS) was 9.33 µM. The TGI (SF-268 CNS) was > 25 µM, the GI50 (SK-MEL-2 melanoma) was 5.08 µM and the TGI (SK-MEL-2 melanoma) was 12.7 µM. The GI50 (CAKI-1 renal) was 6.57 µM, the TGI (CAKI-1 renal) was > 25 µM and the GI50 (NCI-H522 lung) was 4.6 µM. For the same compound, the TGI (NCI-H522 lung) was > 25 µM, the GI50 (SNB-75 CNS) was 3.73 µM and the TGI (SNB-75 CNS) was > 25 µM. The GI50 (ACHN renal) was 8.41 µM, the TGI (ACHN renal) was > 25 µM and the GI50 (RPMI-8226 leukemia) was 2.34 µM. For the same compound, the TGI (RPMI-8226 leukemia) was 13.5 µM, the GI50 (SF-539 CNS) was 3.57 µM and the TGI (SF-539 CNS) was 12.9 µM. The GI50 (COLO 205 colon) was 10.8 µM, the TGI (COLO 205 colon) was > 25 µM and the GI50 (SN12C renal) was 8.93 µM. The TGI (SN12C renal) was > 25 µM, the GI50 (NCI-H460 lung) was 7.23 µM and the TGI (NCI-H460 lung) was > 25 µM. The GI50 (KM12 colon) was 7.85 µM, the TGI (KM12 colon) was > 25 µM and the GI50 (SR leukemia) was 8.79 µM. For the same compound, the TGI (SR leukemia) was > 25 µM, the GI50 (NCI-H23 lung) was 9.8 µM and the TGI (NCI-H23 lung) was > 25 µM. For the same compound, the GI50 (SW-620 colon) was 11.1 µM, the TGI (SW-620 colon) was > 25 µM and the GI50 (HCT-15 colon) was 4.84 µM. For the same compound, the TGI (HCT-15 colon) was 15.5 µM, the GI50 (UACC-257 melanoma) was 14.7 µM and the TGI (UACC-257 melanoma) was > 25 µM. It also gave a GI50 (MALME-3M melanoma) of 4.66 µM, a TGI (MALME-3M melanoma) of 16.7 µM and a GI50 (SK-MEL-5 melanoma) of 5.68 µM. For the same compound, the TGI (SK-MEL-5 melanoma) was 19 µM, the GI50 (EKVX NSCLC) was 11.1 µM and the TGI (EKVX NSCLC) was > 25 µM. The GI50 (NCI-H226 lung) was > 25 µM, the TGI (NCI-H226 lung) was > 25 µM and the GI50 (MCF7 breast) was 8.46 µM. The TGI (MCF7 breast) was > 25 µM, the GI50 (OVCAR-8 ovarian) was 11.8 µM and the TGI (OVCAR-8 ovarian) was > 25 µM. For the same compound, the GI50 (PC-3 prostate) was 5.02 µM, the TGI (PC-3 prostate) was > 25 µM and the GI50 (UACC-62 melanoma) was 5.35 µM. For the same compound, the TGI (UACC-62 melanoma) was 12.9 µM, the GI50 (K-562 leukemia) was 4.75 µM and the TGI (K-562 leukemia) was > 25 µM. The GI50 (IGROV1 ovarian) was 12.7 µM, the TGI (IGROV1 ovarian) was > 25 µM and the GI50 (CCRF-CEM leukemia) was 4.09 µM. For the same compound, the TGI (CCRF-CEM leukemia) was 21.8 µM, the GI50 (SNB-19 CNS) was 11.9 µM and the TGI (SNB-19 CNS) was > 25 µM. For the same compound, the GI50 (NCI/ADR-RES ovarian) was 11.1 µM, the TGI (NCI/ADR-RES ovarian) was > 25 µM and the GI50 (HCT-116 colon) was 6.24 µM. The TGI (HCT-116 colon) was > 25 µM, the GI50 (OVCAR-3 ovarian) was 7.42 µM and the TGI (OVCAR-3 ovarian) was > 25 µM. The GI50 (DU-145 prostate) was 9.69 µM, the TGI (DU-145 prostate) was > 25 µM and the GI50 (HL-60(TB) leukemia) was 5.8 µM. For the same compound, the TGI (HL-60(TB) leukemia) was 18 µM, the GI50 (HS 578T breast) was 6.1 µM and the TGI (HS 578T breast) was > 25 µM. For the same compound, the GI50 (HT29 colon) was 5.01 µM and the TGI (HT29 colon) was 13.4 µM.

In the case of COc1cc(C2NCCC(c3ccccc3)(c3ccccc3)N2)cc(OC)c1OC (stereo not drawn), the TGI (786-0 renal) is reported as > 100 µM, the TGI (A549 NSCLC) is reported as > 100 µM and the TGI (UO-31 renal) is reported as 66.2 µM. For the same compound, the TGI (SK-MEL-28 melanoma) was 35.6 µM, the TGI (HCC-2998 colon) was 42.7 µM and the TGI (MDA-MB-435) was > 100 µM. The TGI (OVCAR-4 ovarian) was > 100 µM, the TGI (LOX IMVI melanoma) was 47.7 µM and the TGI (HOP-92 NSCLC) was 27.9 µM. The TGI (SF-295 CNS) was 35.8 µM, the TGI (M14 melanoma) was 27.2 µM and the TGI (A498 renal) was 88.6 µM. The TGI (TK-10 renal) was > 100 µM, the TGI (T-47D breast) was > 100 µM and the TGI (U251 CNS) was > 100 µM. The TGI (HOP-62 NSCLC) was > 100 µM, the TGI (MDA-MB-231 breast) was > 100 µM and the TGI (RXF 393 renal) was > 100 µM. For the same compound, the TGI (SF-268 CNS) was > 100 µM, the TGI (SNB-75 CNS) was > 100 µM and the TGI (ACHN renal) was > 100 µM. For the same compound, the TGI (SK-OV-3 ovarian) was > 100 µM, the TGI (SF-539 CNS) was 29.7 µM and the TGI (COLO 205 colon) was 42.4 µM. For the same compound, the TGI (SN12C renal) was > 100 µM, the TGI (NCI-H460 lung) was > 100 µM and the TGI (KM12 colon) was > 100 µM. For the same compound, the TGI (SR leukemia) was > 100 µM, the TGI (NCI-H23 lung) was > 100 µM and the TGI (SW-620 colon) was > 100 µM. For the same compound, the TGI (HCT-15 colon) was > 100 µM, the TGI (UACC-257 melanoma) was 33.9 µM and the TGI (MALME-3M melanoma) was 34 µM. The TGI (SK-MEL-5 melanoma) was 32.1 µM, the TGI (EKVX NSCLC) was > 100 µM and the TGI (NCI-H226 lung) was 43.8 µM. The TGI (MCF7 breast) was 85.8 µM, the TGI (OVCAR-8 ovarian) was > 100 µM and the TGI (UACC-62 melanoma) was > 100 µM. The TGI (IGROV1 ovarian) was > 100 µM, the TGI (CCRF-CEM leukemia) was > 100 µM and the TGI (SNB-19 CNS) was > 100 µM. The TGI (NCI/ADR-RES ovarian) was > 100 µM, the TGI (HCT-116 colon) was > 100 µM and the TGI (DU-145 prostate) was > 100 µM. For the same compound, the TGI (HL-60(TB) leukemia) was 90.2 µM, the TGI (HS 578T breast) was 79.5 µM and the TGI (HT29 colon) was 79.4 µM.
